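A five-concentration, 48-hour dose response in 96-well plates underlies each endpoint, interpolated linearly between surrounding concentrations. Here, GI50 denotes the concentration required for 50% inhibition of growth.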 Active and inactive are the calls of the source. Rule as the data show it: active = GI50 up to about 1.1 µM and inactive = higher.
Legend:
Assay in all cases: DTP human tumour cell line panel, 48 h
[1] = test system: M14
[2] = test system: PC-3
[3] = test system: COLO 205
[4] = test system: SK-MEL-2
[5] = test system: CAKI-1
[6] = test system: SW-620
[7] = test system: SK-MEL-28
[8] = test system: MDA-N
[9] = test system: IGROV-1
[10] = test system: OVCAR-3
[11] = test system: SN12C
[12] = test system: HT-29
[13] = test system: KM12
[14] = test system: Malme-3M
[15] = test system: Hs-578T
[16] = test system: BT-549
[17] = test system: A498
[18] = test system: MCF7
[19] = test system: DU-145
[20] = test system: UACC-62
[21] = test system: NCI-H226
[22] = test system: MDA-MB-435
[23] = test system: 786-0
[24] = test system: HL-60
[25] = test system: TK-10
[26] = test system: HOP-62
[27] = test system: MDA-MB-231
[28] = test system: SF-295
[29] = test system: LOX IMVI
[30] = test system: SR
[31] = test system: SK-OV-3
[32] = test system: ACHN
[33] = test system: NCI-H23
[34] = test system: NCI/ADR-RES
[35] = test system: NCI-H460
[36] = test system: UACC-257
[37] = test system: OVCAR-5
[38] = test system: K562
[39] = test system: SK-MEL-5
[40] = test system: HCT-15
[41] = test system: CCRF-CEM
[42] = test system: SF-539
[43] = test system: MOLT-4
[44] = test system: EKVX
[45] = test system: U-251
[46] = test system: OVCAR-8
[47] = test system: RXF 393
[48] = test system: HCT-116
[49] = test system: SF-268
[50] = test system: RPMI-8226
[51] = test system: SNB-19
[52] = test system: NCI-H522
[53] = test system: SNB-75
[54] = test system: T47D
[55] = test system: A549
[56] = test system: UO-31
[57] = test system: HCC 2998
[58] = test system: HOP-92
[59] = test system: OVCAR-4

With `O=c1[nH]c2ccc(CC(=S)N3CCOCC3)cc2s1` the GI50 [1] was > 100 µM (inactive), the GI50 [2] was > 100 µM (inactive) and the GI50 [3] was > 100 µM (inactive). The GI50 [4] was > 100 µM (inactive), the GI50 [5] was > 100 µM (inactive) and the GI50 [6] was > 100 µM (inactive). For the same compound, the GI50 [7] was > 100 µM (inactive), the GI50 [8] was > 100 µM (inactive) and the GI50 [9] was > 100 µM (inactive). The GI50 [10] was > 100 µM (inactive), the GI50 [11] was > 100 µM (inactive) and the GI50 [12] was > 100 µM (inactive). The GI50 [13] was > 100 µM (inactive), the GI50 [14] was > 100 µM (inactive) and the GI50 [15] was > 100 µM (inactive). The GI50 [16] was > 100 µM (inactive), the GI50 [17] was > 100 µM (inactive) and the GI50 [18] was > 100 µM (inactive). The GI50 [19] was > 100 µM (inactive), the GI50 [20] was > 100 µM (inactive) and the GI50 [21] was > 100 µM (inactive). The GI50 [22] was > 100 µM (inactive), the GI50 [23] was > 100 µM (inactive) and the GI50 [24] was 53.6 µM (inactive). The GI50 [25] was > 100 µM (inactive), the GI50 [26] was > 100 µM (inactive) and the GI50 [27] was > 100 µM (inactive). The GI50 [28] was > 100 µM (inactive), the GI50 [29] was > 100 µM (inactive) and the GI50 [30] was > 100 µM (inactive). For the same compound, the GI50 [31] was > 100 µM (inactive), the GI50 [32] was > 100 µM (inactive) and the GI50 [33] was > 100 µM (inactive). For the same compound, the GI50 [34] was > 100 µM (inactive), the GI50 [35] was > 100 µM (inactive) and the GI50 [36] was > 100 µM (inactive). The GI50 [37] was > 100 µM (inactive), the GI50 [38] was > 100 µM (inactive) and the GI50 [39] was > 100 µM (inactive). For the same compound, the GI50 [40] was > 100 µM, the GI50 [41] was > 100 µM (inactive) and the GI50 [42] was > 100 µM (inactive). The GI50 [43] was > 100 µM (inactive), the GI50 [44] was > 100 µM (inactive) and the GI50 [45] was > 100 µM (inactive). For the same compound, the GI50 [46] was > 100 µM (inactive), the GI50 [47] was > 100 µM (inactive) and the GI50 [48] was > 100 µM (inactive). For the same compound, the GI50 [49] was > 100 µM (inactive), the GI50 [50] was > 100 µM (inactive) and the GI50 [51] was > 100 µM (inactive).
In the case of `CN(C)CCNC(=O)c1cc(-c2nccn2C)nc2ccccc12`, the GI50 [1] is reported as > 100 µM (inactive), the GI50 [2] is reported as > 100 µM (inactive) and the GI50 [52] is reported as > 100 µM (inactive). For the same compound, the GI50 [53] was > 100 µM (inactive), the GI50 [3] was > 100 µM (inactive) and the GI50 [4] was > 100 µM (inactive). The GI50 [5] was > 100 µM (inactive), the GI50 [6] was > 100 µM (inactive) and the GI50 [54] was > 100 µM (inactive). For the same compound, the GI50 [8] was > 100 µM (inactive), the GI50 [9] was > 100 µM (inactive) and the GI50 [55] was > 100 µM (inactive). For the same compound, the GI50 [11] was > 100 µM (inactive), the GI50 [56] was 52.8 µM (inactive) and the GI50 [12] was > 100 µM (inactive). The GI50 [13] was > 100 µM (inactive), the GI50 [14] was > 100 µM (inactive) and the GI50 [16] was 81.1 µM (inactive). For the same compound, the GI50 [17] was > 100 µM (inactive), the GI50 [18] was 70.1 µM (inactive) and the GI50 [19] was > 100 µM (inactive). For the same compound, the GI50 [20] was > 100 µM (inactive), the GI50 [21] was > 100 µM (inactive) and the GI50 [22] was > 100 µM (inactive). The GI50 [23] was > 100 µM (inactive), the GI50 [24] was > 100 µM (inactive) and the GI50 [25] was > 100 µM (inactive). For the same compound, the GI50 [26] was 50.8 µM (inactive), the GI50 [27] was > 100 µM (inactive) and the GI50 [29] was > 100 µM (inactive). The GI50 [30] was > 100 µM (inactive), the GI50 [32] was 58.3 µM (inactive) and the GI50 [33] was > 100 µM (inactive). For the same compound, the GI50 [34] was > 100 µM (inactive), the GI50 [35] was 34.4 µM (inactive) and the GI50 [36] was > 100 µM (inactive). For the same compound, the GI50 [37] was > 100 µM (inactive), the GI50 [38] was > 100 µM (inactive) and the GI50 [39] was > 100 µM (inactive). For the same compound, the GI50 [40] was 66.1 µM, the GI50 [57] was > 100 µM (inactive) and the GI50 [41] was > 100 µM (inactive). The GI50 [42] was > 100 µM (inactive), the GI50 [43] was > 100 µM (inactive) and the GI50 [44] was > 100 µM (inactive). For the same compound, the GI50 [45] was > 100 µM (inactive), the GI50 [46] was > 100 µM (inactive) and the GI50 [47] was 45.4 µM (inactive). The GI50 [48] was > 100 µM (inactive), the GI50 [49] was > 100 µM (inactive) and the GI50 [50] was > 100 µM (inactive). For the same compound, the GI50 [58] was 64.7 µM (inactive) and the GI50 [51] was > 100 µM (inactive).
In the case of `CC1CCCc2c(CC3CC(=O)NC(=O)C3)nc(N)nc21` (configuration not stated), the GI50 [1] is reported as > 100 µM (inactive), the GI50 [2] is reported as > 100 µM (inactive) and the GI50 [53] is reported as 95.7 µM (inactive). For the same compound, the GI50 [3] was > 100 µM (inactive), the GI50 [4] was > 100 µM (inactive) and the GI50 [5] was > 100 µM (inactive). For the same compound, the GI50 [6] was > 100 µM (inactive), the GI50 [54] was > 100 µM (inactive) and the GI50 [7] was > 100 µM (inactive). The GI50 [8] was > 100 µM (inactive), the GI50 [9] was > 100 µM (inactive) and the GI50 [55] was > 100 µM (inactive). The GI50 [10] was > 100 µM (inactive), the GI50 [11] was > 100 µM (inactive) and the GI50 [12] was > 100 µM (inactive). For the same compound, the GI50 [13] was > 100 µM (inactive), the GI50 [14] was > 100 µM (inactive) and the GI50 [16] was > 100 µM (inactive). The GI50 [17] was > 100 µM (inactive), the GI50 [18] was > 100 µM (inactive) and the GI50 [19] was > 100 µM (inactive). The GI50 [20] was > 100 µM (inactive), the GI50 [21] was > 100 µM (inactive) and the GI50 [22] was > 100 µM (inactive). For the same compound, the GI50 [23] was > 100 µM (inactive), the GI50 [24] was 2.21 µM (inactive) and the GI50 [25] was > 100 µM (inactive). The GI50 [26] was > 100 µM (inactive), the GI50 [27] was > 100 µM (inactive) and the GI50 [28] was > 100 µM (inactive). For the same compound, the GI50 [29] was > 100 µM (inactive), the GI50 [30] was > 100 µM (inactive) and the GI50 [31] was > 100 µM (inactive). For the same compound, the GI50 [33] was > 100 µM (inactive), the GI50 [34] was > 100 µM (inactive) and the GI50 [36] was > 100 µM (inactive). For the same compound, the GI50 [37] was > 100 µM (inactive), the GI50 [38] was > 100 µM (inactive) and the GI50 [39] was > 100 µM (inactive). The GI50 [40] was > 100 µM, the GI50 [57] was > 100 µM (inactive) and the GI50 [41] was > 100 µM (inactive). For the same compound, the GI50 [42] was > 100 µM (inactive), the GI50 [43] was > 100 µM (inactive) and the GI50 [44] was > 100 µM (inactive). For the same compound, the GI50 [45] was > 100 µM (inactive), the GI50 [46] was > 100 µM (inactive) and the GI50 [47] was > 100 µM (inactive). For the same compound, the GI50 [48] was > 100 µM (inactive), the GI50 [49] was > 100 µM (inactive) and the GI50 [50] was > 100 µM (inactive). For the same compound, the GI50 [58] was > 100 µM (inactive) and the GI50 [59] was > 100 µM (inactive).

Reference: ChEMBL document CHEMBL1201862, “PubChem BioAssay data set” (2004)
